Data reported in ChEMBL document CHEMBL4219053, “Antiobesity and emetic effects of a short-length peptide YY analog and its PEGylated and alkylated derivatives” (Bioorg Med Chem, 2018).

Legend:
[1] = molecular target: T1, Neuropeptide Y receptor type 2 (Homo sapiens, UniProt P49146); assay: Displacement of [125I]-PYY from human neuropeptide Y2 receptor expressed in CHO cell membranes incubated for 60 mins by TopCount micro scintillation analysis
T1 sequence (P49146 whole entry): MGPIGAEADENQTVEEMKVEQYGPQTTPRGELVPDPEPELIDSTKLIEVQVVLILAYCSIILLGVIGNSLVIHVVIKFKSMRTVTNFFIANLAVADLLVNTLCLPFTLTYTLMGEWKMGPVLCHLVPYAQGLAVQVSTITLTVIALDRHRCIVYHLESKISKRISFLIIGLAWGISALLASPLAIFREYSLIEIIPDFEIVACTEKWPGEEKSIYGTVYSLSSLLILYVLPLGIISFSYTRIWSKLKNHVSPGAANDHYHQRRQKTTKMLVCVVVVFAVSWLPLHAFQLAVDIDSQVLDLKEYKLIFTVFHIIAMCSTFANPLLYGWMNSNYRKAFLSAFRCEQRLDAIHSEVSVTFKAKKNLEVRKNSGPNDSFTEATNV

Mus musculus [2] = assay: Anorectic activity in C57BL/6J mouse assessed as inhibition of food intake at 30 nmol/kg, sc qd for 3 days relative to control; type: functional; details: 72 h
Mus musculus [3] = assay: Antiobesity activity in DIO C57BL/6J mouse assessed as reduction in body weight at 10 nmol/kg, sc qd for 2 weeks; type: functional; set-up: scale not given: the % may be the effect or the level left
Mus musculus [4] = assay: Antiobesity activity in DIO C57BL/6J mouse assessed as reduction in body weight at 3 nmol/kg, sc qd for 2 weeks; type: functional; set-up: scale not given: the % may be the effect or the level left
[5] = Cmax in C57BL/6J mouse at 10 nmol/kg, sc by LC-MS/MS analysis; type: ADME, organism-based; set-up: dose 10 nmol/kg, route subcutaneous; details: in vivo
[6] = Tmax in C57BL/6J mouse at 10 nmol/kg, sc by LC-MS/MS analysis; type: ADME, organism-based; details: in vivo
[7] = AUC (0 to 48 hrs) in C57BL/6J mouse at 10 nmol/kg, sc by LC-MS/MS analysis; type: ADME, organism-based; set-up: dose 10 nmol/kg, time < 48 hr, route subcutaneous; details: in vivo
[8] = Mean residence time in C57BL/6J mouse at 10 nmol/kg, sc by LC-MS/MS analysis; type: ADME, organism-based; details: in vivo
[9] = Tmax in Beagle dog at 3 nmol/kg, sc; type: ADME, organism-based, Canis lupus familiaris; details: in vivo
[10] = Cmax in Beagle dog at 3 nmol/kg, sc; type: ADME, organism-based, Canis lupus familiaris; set-up: dose 3 nmol/kg, route subcutaneous; details: in vivo
[11] = Solubility of the compound in water; type: physicochemical; details: buffer
Mus musculus [12] = assay: Antiobesity activity in DIO C57BL/6J mouse assessed as reduction in body weight at 30 nmol/kg, sc qd for 2 weeks; type: functional; set-up: scale not given: the % may be the effect or the level left

`CC[C@](C)(NC(=O)[C@H]1C[C@H](O)CN1C(=O)[C@H](CO)NC(=O)c1c[nH]cn1)C(=O)N[C@@H](Cc1ccncc1)C(=O)N[C@@H](CC1CCCCC1)C(=O)N[C@@H](CC(C)(C)C)C(=O)N[C@@H](CC(N)=O)C(=O)N[C@@H](CCCCNC(=O)COCC(=O)NCCCOCCOCCOCCCNC(=O)CC[C@H](NC(=O)[C@H]1CC[C@H](CNC(=O)CCCCCCCCCCCCCCCCCCC(=O)O)CC1)C(=O)O)C(=O)NC(C)(C)C(=O)N[C@H](C(=O)N[C@@H](CCCNC(=N)N)C(=O)N[C@@H](CCC(N)=O)C(=O)N[C@@H](CCCNC(=N)N)C(=O)N[C@@H](CC1CCCCC1)C(N)=O)[C@@H](C)O` gave an IC50 [1] of 24 nM and an inhibition in vivo at 0.03 µmol/kg (Mus musculus [2]) of 30%.

Work on `CCCCCCCCCCCCCCCC(=O)NC[C@H]1CC[C@H](C(=O)N[C@@H](CCC(=O)NCCCOCCOCCOCCCNC(=O)COCC(=O)N[C@@H](CO)C(=O)N2C[C@@H](O)C[C@@H]2C(=O)N[C@@H](CCCNC(=N)N)C(=O)N[C@@H](Cc2ccncc2)C(=O)N[C@@H](CC2CCCCC2)C(=O)NC(C)(C)C(=O)N[C@@H](CC(N)=O)C(=O)N[C@@H](CCCCNC(=O)C2CCNCC2)C(=O)NC(C)(C)C(=O)N[C@H](C(=O)N[C@@H](CCCNC(=N)N)C(=O)N[C@@H](CCC(N)=O)C(=O)N[C@@H](CCCNC(=N)N)C(=O)N[C@@H](CC2CCCCC2)C(N)=O)[C@@H](C)O)C(=O)O)CC1` yielded an IC50 [1] of 0.19 nM, an inhibition in vivo at 0.03 µmol/kg (Mus musculus [2]) of 68.3% and an Activity (Mus musculus [3]) of -19%. It also gave an Activity (Mus musculus [4]) of -18.4%, a Cmax [5] of 3.6 nM and a Tmax [6] of 1 h. It also gave an AUC(0-t) at 48 h [7] of 0.0122 µM·h, an MRT [8] of 1.7 h and a Tmax [9] of 2.5 h. For the same compound, the Cmax [10] was 0.9 nM.

In the case of `CC[C@](C)(NC(=O)[C@H]1C[C@H](O)CN1C(=O)[C@H](CO)NC(=O)c1c[nH]cn1)C(=O)N[C@@H](Cc1ccncc1)C(=O)N[C@@H](CC1CCCCC1)C(=O)N[C@@H](CC(C)(C)C)C(=O)N[C@@H](CC(N)=O)C(=O)N[C@@H](CCCCNC(=O)[C@@H](N)CCCCNC(=O)COCC(=O)NCCCOCCOCCOCCCNC(=O)CC[C@H](NC(=O)[C@H]1CC[C@H](CNC(=O)CCCCCCCCCCCCCCCCCCC(=O)O)CC1)C(=O)O)C(=O)NC(C)(C)C(=O)N[C@H](C(=O)N[C@@H](CCCNC(=N)N)C(=O)N[C@@H](CCC(N)=O)C(=O)N[C@@H](CCCNC(=N)N)C(=O)N[C@@H](CC1CCCCC1)C(N)=O)[C@@H](C)O`, the IC50 [1] is reported as 13 nM, the inhibition in vivo at 0.03 µmol/kg (Mus musculus [2]) is reported as 67% and the solubility [11] is reported as “Insoluble”.

`CC[C@](C)(NC(=O)[C@H]1C[C@H](O)CN1C(=O)[C@H](CO)NC(=O)COCC(=O)NCCCOCCOCCOCCCNC(=O)CC[C@H](NC(=O)[C@H]1CC[C@H](CNC(=O)CCCCCCCCCCCCCCCCCCC(=O)O)CC1)C(=O)O)C(=O)N[C@@H](Cc1ccncc1)C(=O)N[C@@H](CC1CCCCC1)C(=O)N[C@@H](CC(C)(C)C)C(=O)N[C@@H](CC(N)=O)C(=O)N[C@@H](CCCCNC(C)=O)C(=O)NC(C)(C)C(=O)N[C@H](C(=O)N[C@@H](CCCNC(=N)N)C(=O)N[C@@H](CCC(N)=O)C(=O)N[C@@H](CCCNC(=N)N)C(=O)N[C@@H](CC1CCCCC1)C(N)=O)[C@@H](C)O` gave an IC50 [1] of 7.6 nM, an inhibition in vivo at 0.03 µmol/kg (Mus musculus [2]) of 43% and an Activity (Mus musculus [12]) of -6.1%.

Compound `C[C@@H](O)[C@H](NC(=O)C(C)(C)NC(=O)[C@H](CCCCNC(=O)C1CCNCC1)NC(=O)[C@H](CC(N)=O)NC(=O)C(C)(C)NC(=O)[C@H](CC1CCCCC1)NC(=O)[C@H](Cc1ccncc1)NC(=O)[C@H](CCCNC(=N)N)NC(=O)[C@H]1C[C@H](O)CN1C(=O)[C@H](CO)NC(=O)COCC(=O)NCCCOCCOCCOCCCNC(=O)CC[C@H](NC(=O)[C@H]1CC[C@H](CNC(=O)CCCCCCCCCCCCCCCCCCC(=O)O)CC1)C(=O)O)C(=O)N[C@@H](CCCNC(=N)N)C(=O)N[C@@H](CCC(N)=O)C(=O)N[C@@H](CCCNC(=N)N)C(=O)N[C@@H](CC1CCCCC1)C(N)=O` has an IC50 [1] of 4.5 nM, an inhibition in vivo at 0.03 µmol/kg (Mus musculus [2]) of 67.3% and an Activity (Mus musculus [12]) of -17.2%. It also gave an Activity (Mus musculus [3]) of -11.6%.

With `CC[C@](C)(NC(=O)[C@H]1C[C@H](O)CN1C(=O)[C@H](CO)NC(=O)COCC(=O)NCCCOCCOCCOCCCNC(=O)CC[C@H](NC(=O)[C@H]1CC[C@H](CNC(=O)CCCCCCCCCCCCCCCCCCC(=O)O)CC1)C(=O)O)C(=O)N[C@@H](Cc1ccncc1)C(=O)N[C@@H](CC1CCCCC1)C(=O)N[C@@H](CC(C)(C)C)C(=O)N[C@@H](CC(N)=O)C(=O)N[C@@H](CCCCN)C(=O)NC(C)(C)C(=O)N[C@H](C(=O)N[C@@H](CCCNC(=N)N)C(=O)N[C@@H](CCC(N)=O)C(=O)N[C@@H](CCCNC(=N)N)C(=O)N[C@@H](CC1CCCCC1)C(N)=O)[C@@H](C)O` the IC50 [1] was 13 nM, the inhibition in vivo at 0.03 µmol/kg (Mus musculus [2]) was 47.8% and the Activity (Mus musculus [12]) was -15.1%.

Work on `CCCCCCCCCCCCCCCC(=O)NC[C@H]1CC[C@H](C(=O)N[C@@H](CCC(=O)NCCCOCCOCCOCCCNC(=O)COCC(=O)NCCCC[C@H](N)C(=O)NCCCC[C@H](NC(=O)[C@H](CC(N)=O)NC(=O)C(C)(C)NC(=O)[C@H](CC2CCCCC2)NC(=O)[C@H](Cc2ccncc2)NC(=O)[C@H](CCCNC(=N)N)NC(=O)[C@H]2C[C@H](O)CN2C(=O)[C@H](CO)NC(=O)c2c[nH]cn2)C(=O)NC(C)(C)C(=O)N[C@H](C(=O)N[C@@H](CCCNC(=N)N)C(=O)N[C@@H](CCC(N)=O)C(=O)N[C@@H](CCCNC(=N)N)C(=O)N[C@@H](CC2CCCCC2)C(N)=O)[C@@H](C)O)C(=O)O)CC1` yielded an IC50 [1] of 0.19 nM and an inhibition in vivo at 0.03 µmol/kg (Mus musculus [2]) of 36%.

With `C[C@@H](O)[C@H](NC(=O)C(C)(C)NC(=O)[C@H](CCCCNC(=O)[C@@H](N)CCCCNC(=O)COCC(=O)NCCCOCCOCCOCCCNC(=O)CC[C@H](NC(=O)[C@H]1CC[C@H](CNC(=O)CCCCCCCCCCCCCCCCCCC(=O)O)CC1)C(=O)O)NC(=O)[C@H](CC(N)=O)NC(=O)[C@H](CC(C)(C)C)NC(=O)[C@H](CC1CCCCC1)NC(=O)[C@H](Cc1ccncc1)NC(=O)[C@H](CCCNC(=N)N)NC(=O)[C@H]1C[C@H](O)CN1C(=O)[C@H](CO)NC(=O)c1c[nH]cn1)C(=O)N[C@@H](CCCNC(=N)N)C(=O)N[C@@H](CCC(N)=O)C(=O)N[C@@H](CCCNC(=N)N)C(=O)N[C@@H](CC1CCCCC1)C(N)=O` the IC50 [1] was 3.4 nM, the inhibition in vivo at 0.03 µmol/kg (Mus musculus [2]) was 58% and the Activity (Mus musculus [12]) was -23.1%. For the same compound, the solubility [11] was “Soluble”.

In the case of `CC[C@](C)(NC(=O)[C@H]1C[C@H](O)CN1C(=O)[C@H](CO)NC(=O)COCC(=O)NCCCOCCOCCOCCCNC(=O)CC[C@H](NC(=O)[C@H]1CC[C@H](CNC(=O)CCCCCCCCCCCCCCCCCCC(=O)O)CC1)C(=O)O)C(=O)N[C@@H](Cc1ccncc1)C(=O)N[C@@H](CC1CCCCC1)C(=O)N[C@@H](CC(C)(C)C)C(=O)N[C@@H](CC(N)=O)C(=O)N[C@@H](CCCCNC(=O)C1CCNCC1)C(=O)NC(C)(C)C(=O)N[C@H](C(=O)N[C@@H](CCCNC(=N)N)C(=O)N[C@@H](CCC(N)=O)C(=O)N[C@@H](CCCNC(=N)N)C(=O)N[C@@H](CC1CCCCC1)C(N)=O)[C@@H](C)O`, the IC50 [1] is reported as 7.6 nM, the inhibition in vivo at 0.03 µmol/kg (Mus musculus [2]) is reported as 52.8% and the Activity (Mus musculus [12]) is reported as -22.3%.
